Earlier results in patent US20080206335A1, “[…] CONTROLLED RELEASE SELECTIVE SEROTONIN […] INHIBITOR FORMULATIONS” (priority 1999, published 2008).

Settings: steady state after multiple oral doses of 100 mg/day, healthy young volunteers

For `COCCCC/C(=N\OCCN)c1ccc(C(F)(F)F)cc1.O=C(O)/C=C\C(=O)O` [fluvoxamine, 5-methoxy-4′-(trifluoromethyl)valerophenone-(E)-O-(2-aminoethyl) oxime maleate (1:1)], the plasma elimination half-life is given as 15.6 h.
